Measured values published in ChEMBL document CHEMBL1150777, “Chemically induced dimerization of human nonpancreatic secretory phospholipase A2 by bis-indole derivatives” (J Med Chem, 2008).

Target: T1, Phospholipase A2, membrane associated (Homo sapiens, UniProt P14555)
T1 sequence (P14555 whole entry): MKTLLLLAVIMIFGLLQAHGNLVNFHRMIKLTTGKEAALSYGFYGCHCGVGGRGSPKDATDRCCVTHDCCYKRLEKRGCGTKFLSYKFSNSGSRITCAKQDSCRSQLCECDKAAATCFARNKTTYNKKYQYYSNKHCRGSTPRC
Experiment: Inhibition of human nonpancreatic secretory phospholipase A2

Row | Compound | IC50 [nM]
1 | COc1ccc2c(c1)c(CC(N)=O)c(C)n2Cc1ccccc1 | 540
2 | COc1ccc2c(c1)c(CC(N)=O)c(C)n2Cc1ccccc1OCCCCCCCOc1ccccc1Cn1c(C)c(CC(N)=O)c2cc(OC)ccc21 | 52
3 | COc1ccc2c(c1)c(CC(N)=O)c(C)n2Cc1ccc(OCCCCCOc2ccc(Cn3c(C)c(CC(N)=O)c4cc(OC)ccc43)cc2)cc1 | 86
4 | COc1ccc2c(c1)c(CC(N)=O)c(C)n2Cc1ccccc1OCCCCOc1ccccc1Cn1c(C)c(CC(N)=O)c2cc(OC)ccc21 | 60
5 | COc1ccc2c(c1)c(CC(N)=O)c(C)n2Cc1ccccc1OCCCCCCCCOc1ccccc1Cn1c(C)c(CC(N)=O)c2cc(OC)ccc21 | 58
6 | COc1ccc2c(c1)c(CC(N)=O)c(C)n2Cc1cccc(OCCCCCOc2cccc(Cn3c(C)c(CC(N)=O)c4cc(OC)ccc43)c2)c1 | 76
7 | CCCCCOc1ccccc1Cn1c(C)c(CC(N)=O)c2cc(OC)ccc21 | 120

Stronger by IC50, values ahead:

Row | IC50 [nM] | Compound
8 | 24 | COc1ccc2c(c1)c(CC(N)=O)c(C)n2Cc1ccccc1OCCCCCOc1ccccc1Cn1c(C)c(CC(N)=O)c2cc(OC)ccc21
9 | 49 | COc1ccc2c(c1)c(CC(N)=O)c(C)n2Cc1ccccc1OCCCCCCCCCOc1ccccc1Cn1c(C)c(CC(N)=O)c2cc(OC)ccc21
10 | 48 | COc1ccc2c(c1)c(CC(N)=O)c(C)n2Cc1ccccc1OCCCOc1ccccc1Cn1c(C)c(CC(N)=O)c2cc(OC)ccc21
11 | 39 | COc1ccc2c(c1)c(CC(N)=O)c(C)n2Cc1ccccc1OCCCCCCOc1ccccc1Cn1c(C)c(CC(N)=O)c2cc(OC)ccc21
